In patent publication US10725057B2, “Method for pretreatment and method for analysis of lenalidomide in biological sample” (Shiseido Company, Ltd, priority 2014, dated 2020):

How the values were obtained:
[1] = system: corneal vascularization elicited by bFGF or VEGF; conditions: compared to the R-form or racemic form (NPL 6); cited from earlier work
[2] = Stability of lenalidomide in different solvents (HPLC peak areas of the enantiomers); format: physicochemical; conditions: 0.5 mg/mL racemic mixture, room temperature or 50° C., 24 hours
Method: A racemic mixture of 0.5 mg/mL lenalidomide in methanol, ethanol, isopropanol, acetonitrile or ethyl acetate, as the sample (product of Selleck Chemicals, US) was incubated at room temperature or at 50° C. for 24 hours, and the following HPLC conditions were employed for quantification of the lenalidomide enantiomers, for evaluation of the stability of lenalidomide in the different solvents.
(§1) Apparatus: Nanospace SI-2 Series (Shiseido Corp.)
Mobile phase: EtOH (100%)
Injection volume: 5 μL, Detection: UV 230 nm.
The peak areas for the enantiomers before and after incubation are shown in FIG. 1 (the initially observed peaks are enantiomer 1, and the next observed peaks are enantiomer 2). […] Lenalidomide was also stable even in isopropanol.

[3] = Dependence of racemization of lenalidomide enantiomers on pH in aqueous buffers at room temperature; format: physicochemical
[4] = system: recurrent intractable multiple myeloma; conditions: in combination with dexamethasone; cited from earlier work
[5] = human blood plasma (NPL 10); cited from earlier work
[6] = NPL 5; cited from earlier work
[7] = Racemization half-life in human serum (37° C.); conditions: for racemization half-life in serum, times longer than the corresponding TD enantiomer: human serum, 37° C.; for half-life in human serum compared to buffer: pH 7.4
Excerpt: The analysis method of the invention is shown as FIG. 15(b). The acid used to suspend the reaction while simultaneously precipitating and removing the protein was HClO4.
as §1

[8] = Racemization half-life under biological buffer conditions (Na-phosphorate buffer pH 7.4, 37° C.); conditions: average of 3 tests ± SD

3-amino-phthalimide-glutarimide [S-pomalidomide]
inhibition of corneal vascularization [1]: significantly inhibit

Nc1cccc2c1CN(C1CCC(=O)NC1=O)C2=O (racemic) [lenalidomide, Lenalidomide]
stability in solvent (decomposition) ([2]; acetonitrile and ethyl acetate): no decomposition was observed
stability in solvent ([2]; isopropanol): stable
stability in solvent ([2]; methanol and ethanol): highly unstable
stability of the enantiomers ([3]; acidic conditions (<pH 4)): stable
increase of racemization half-life for every pH reduction of 1 ([3]; aqueous buffers pH 4 to 9, room temperature): 10 times
racemization half-life ([3]; pH 4, room temperature): estimation of the half-life was no longer possible
racemization and decomposition (peak areas) in aqueous buffer ([3]; pH 9 and 8, room temperature): racemization and decomposition of LL takes place
success rate [4]: 60%

O=C1CCC(N2C(=O)c3ccccc3C2=O)C(=O)N1 (racemic) [thalidomide]
racemization half-life in human blood plasma [5]: approximately 10 minutes
sedative action [6]: only been reported with the R-form

Nc1cccc2c1CN([C@@H]1CCC(=O)NC1=O)C2=O (single isomer, unassigned) [(R*)-LL]
racemization half-life in serum, times longer than the corresponding TD enantiomer [7]: 3 times
racemization half-life in human serum [7]: 1.82 ± 0.0333 h
racemization half-life in aqueous buffer [8]: 4.45 ± 0.0183 h

Nc1cccc2c1CN([C@H]1CCC(=O)NC1=O)C2=O (single isomer, unassigned) [(S*)-LL]
racemization on incubation in aqueous buffer ([3]; pH 6, room temperature): A small amount of (R*)-LL was produced
racemization on incubation in aqueous buffer ([3]; pH 7 and higher, room temperature): racemization was significantly accelerated
racemization half-life in serum, times longer than the corresponding TD enantiomer [7]: 6 times
racemization half-life in human serum [7]: 2.18 ± 0.0817 h
racemization half-life in aqueous buffer [8]: 4.53 ± 0.0217 h

O=C1CC[C@@H](N2C(=O)c3ccccc3C2=O)C(=O)N1 [(R)-TD, R-thalidomide]
racemization half-life in human serum [7]: 0.548 ± 0.417 h
half-life in human serum compared to buffer [7]: 11.1%
racemization half-life in aqueous buffer [8]: 4.92 ± 0.4 h

O=C1CC[C@H](N2C(=O)c3ccccc3C2=O)C(=O)N1 [(S)-TD, S-thalidomide]
racemization half-life in human serum [7]: 0.363 ± 0.0167 h
half-life in human serum compared to buffer [7]: 8.2%
racemization half-life in aqueous buffer [8]: 4.43 ± 0.167 h
